Results taken from publication PMC9032233, “2-{5-[(Z,2Z)-2-Chloro-3-(4-nitrophenyl)-2-propenylidene]-4-oxo-2-thioxothiazolidin-3-yl}-3-methylbutanoic Acid as a Potential Anti-Breast Cancer Molecule” (International Journal of Molecular Sciences, 2022).

Legend:
[1] = tested on: Salmonella Typhimurium TA100; details: Ames MPF
Experimental: The mutagenicity was evaluated using Ames microplate fluctuation protocol (MPF) from Xenometrix (Allschwil, Switzerland). The applied Salmonella Typhimurium TA100 strain was enabled to detect base-pair substitution (hisG46 mutation, for which target is GGG). Les-3331 was tested independently in two final concentrations, 1 and 5 µM, in triplicate. The reference mutagen 4-NQO was tested at 26.3 µM. The occurrence of revertants was visualized using pH indicator dye, which was present in the bacterial medium. The color changes from violet to yellow were confirmed using measurements of absorbance with a microplate reader, EnSpire, at 420 nm. According to the protocols and data sheets provided by Xenometrix, the medium control baseline (MCB) was calculated first, which refers to the number of revertants observed in the control (growth medium + 1% DMSO) plus standard deviation. Next, the Binomial B-value was calculated for tested compounds which indicates the probability that spontaneous mutations occurred. The fold increase ≥2 over the MCB and/or Binomial B-value ≥ 0.99 are considered as the mutagen alert.

human skin fibroblasts = assay: MTT cell viability assay, skin fibroblasts; format: cell-based; details: Skin fibroblast, 24 h incubation
Experimental: Cell culture MCF-7, MDA-MB-231 human breast cancer cells, and fibroblasts skin cells were purchased from the ATCC—American Type Culture Collection. All cell lines were maintained in DMEM (Corning, Kennebunk, ME, USA). The medium was supplemented with 10% fetal bovine serum—FBS (Eurx, Gdansk, Poland) and 1% antimicrobial substances: penicillin–streptomycin (Corning, Kennebunk, ME, USA). The incubator asserted appropriate growth conditions required for these cell lines: 5% of CO2, at 37 °C, with the humidity between 90–95%. Cells were seeded in 100 mm round dishes. An amount of 0.05% trypsin containing 0.02% EDTA (Corning, Kennebunk, ME, USA) and phosphate-buffered saline (PBS) without calcium and magnesium (Corning, Kennebunk, ME, USA) was used to detach cells from a plate once 80–90% cell confluence was achieved. In the next step, cells were reseeded in six-well plates (density—5 × 10^5 of cells per well) in 1 mL of DMEM after a 24 h incubation used in the presented tests.
To examine the effect of Les-3331 on cell viability, the MTT assay was performed. […] The absorbance was measured using Spectrophotometer UV-VIS Helios Gamma (Unicam/ThermoFisher Scientific Inc., Waltham, MA, USA) at a wavelength of 570 nm. The obtained absorbance in untreated control cells was taken as 100%, while the survival of the cells incubated with tested compounds presented as a percentage of the control value.

CYP3A4 = molecular target: T1, CYP3A4 (Homo sapiens, UniProt P08684); assay: Luminescent CYP3A4 P450-Glo assay; format: in vitro ADME; details: at 10 and 25 µM
T1 construct: purchased Promega (Madison, WI, USA)
T1 sequence (P08684 whole entry): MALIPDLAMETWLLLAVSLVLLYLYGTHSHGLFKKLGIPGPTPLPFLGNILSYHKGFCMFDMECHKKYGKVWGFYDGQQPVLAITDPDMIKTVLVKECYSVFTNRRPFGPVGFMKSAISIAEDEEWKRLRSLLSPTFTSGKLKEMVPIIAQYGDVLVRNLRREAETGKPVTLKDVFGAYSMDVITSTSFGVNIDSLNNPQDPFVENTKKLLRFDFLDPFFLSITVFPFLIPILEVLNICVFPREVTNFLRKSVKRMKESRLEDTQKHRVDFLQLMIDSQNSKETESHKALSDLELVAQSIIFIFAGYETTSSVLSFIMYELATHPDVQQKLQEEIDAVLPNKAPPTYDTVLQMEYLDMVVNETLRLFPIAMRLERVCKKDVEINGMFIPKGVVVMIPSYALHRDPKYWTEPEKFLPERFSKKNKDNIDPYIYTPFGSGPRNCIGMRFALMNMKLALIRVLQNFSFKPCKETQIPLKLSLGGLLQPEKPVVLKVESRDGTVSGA
Experimental: For investigation of potential drug-drug interactions, the luminescent CYP3A4 and CYP2D6 P450-Glo assays obtained from Promega® (Madison, WI, USA) were used. Les-3331 was tested in triplicate at the final concentrations from 0.01 to 25 µM according to the protocols provided by Promega®. The reference inhibitors were tested at 1 µM. The luminescent signal was measured using a microplate reader, EnSpire PerkinElmer (Waltham, MA, USA).

CC(C)C(C(=O)O)N1C(=O)/C(=C/C(Cl)=C/c2ccc([N+](=O)[O-])cc2)SC1=S (stereo not shown) [Les-3331, 2-{5-[(Z,2Z)-2-chloro-3-(4-nitrophenyl)-2-propenylidene]-4-oxo-2-thioxothiazolidin-3-yl}-3-methylbutanoic acid]
mutagenicity ([1]; TA100, 1 µM): not mutagenic | fold increase in MCB ([1]; TA100, 5 µM): twofold increase in MCB was not reached | IC50 (human skin fibroblasts): 28.5 µM | effect on CYP3A4 activity (CYP3A4): activated
